According to patent US5395922A, “Yeast processing system” (Novo Nordisk A/S, priority 1989, dated 1995):

Tests used:
Format in all cases: biochemical
trypsin [1] = test: Trypsin inhibitor specific activity, spectrophotometric assay (method of Kassel); conditions: comparison with native aprotinin
Method: Yeast strain KFN-837 was grown on YPD medium (1% yeast extract, 2% peptone (from Difco Laboratories), and 6% glucose). A 200 ml culture of the strain was shaken at 250 rpm at 30° C. for 3 days to an O.D. at 600 nm of 20 (Dry yeast biomass 18.8 g/liter). After centrifugation the supernatant was analyzed by FPLC ion exchange chromatography. The yeast supernatant was filtered through a 0.22 μm Millex GV filter unit and 1 ml was applied on a MonoS cation exchange column (0.5×5 cm) equilibrated with 20 mM Bicine, pH=8.7. After wash with equilibration buffer the column was eluted with a linear NaCl gradient (0-1M) in equilibration buffer. Trypsin inhibitor activity was quantified in the eluted fractions by spectrophotometric assay (Kassel, B., Methods Enzymol. 19 (1970), 844-852) and furthermore by integration of absorption at 280 nm from [formula] The yield was […] of Glu-Leu-aprotinin(1-58).
The trypsin and plasmin inhibition by Glu-Leu-aprotinin (1-58) in terms of titration curves determined as described below were indistinguishable from that of bovine pancreatic aprotinin (Aprotinin Novo). After incubation of the enzyme with aprotinin or its analogues for 30 minutes, 0.6 mM S 2251 (KabiVitrum) was added and the activity measured as the rate of nitroaniline production. The activity as a function of aprotinin concentration is plotted in FIG. 5A and 5B. […]

trypsin [2] = test: Trypsin inhibition titration curves (S 2251 substrate, rate of nitroaniline production); conditions: 30 minutes incubation of enzyme with inhibitor, 0.6 mM S 2251; FIG. 5A
Method: (§1) The trypsin and plasmin inhibition by Glu-Leu-aprotinin (1-58) in terms of titration curves determined as described below were indistinguishable from that of bovine pancreatic aprotinin (Aprotinin Novo). After incubation of the enzyme with aprotinin or its analogues for 30 minutes, 0.6 mM S 2251 (KabiVitrum) was added and the activity measured as the rate of nitroaniline production. The activity as a function of aprotinin concentration is plotted in FIG. 5A and 5B. Complete inhibition of both enzymes with all three inhibitors was observed.

plasmin = plasmin (Homo sapiens, UniProt P00747); test: Plasmin inhibition titration curves (S 2251 substrate, rate of nitroaniline production); conditions: 30 minutes incubation of enzyme with inhibitor, 0.6 mM S 2251; FIG. 5B
Sequence of plasmin (P00747 581-810 limits assumed, species assumed): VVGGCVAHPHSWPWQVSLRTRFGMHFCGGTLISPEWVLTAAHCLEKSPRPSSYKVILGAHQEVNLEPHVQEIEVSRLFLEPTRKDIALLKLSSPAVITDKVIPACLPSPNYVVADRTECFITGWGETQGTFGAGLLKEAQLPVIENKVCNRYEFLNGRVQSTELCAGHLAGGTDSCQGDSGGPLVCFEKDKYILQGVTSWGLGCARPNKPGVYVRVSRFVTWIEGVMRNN
Sequence of plasmin (P00747 97-580 partner limits assumed, species assumed): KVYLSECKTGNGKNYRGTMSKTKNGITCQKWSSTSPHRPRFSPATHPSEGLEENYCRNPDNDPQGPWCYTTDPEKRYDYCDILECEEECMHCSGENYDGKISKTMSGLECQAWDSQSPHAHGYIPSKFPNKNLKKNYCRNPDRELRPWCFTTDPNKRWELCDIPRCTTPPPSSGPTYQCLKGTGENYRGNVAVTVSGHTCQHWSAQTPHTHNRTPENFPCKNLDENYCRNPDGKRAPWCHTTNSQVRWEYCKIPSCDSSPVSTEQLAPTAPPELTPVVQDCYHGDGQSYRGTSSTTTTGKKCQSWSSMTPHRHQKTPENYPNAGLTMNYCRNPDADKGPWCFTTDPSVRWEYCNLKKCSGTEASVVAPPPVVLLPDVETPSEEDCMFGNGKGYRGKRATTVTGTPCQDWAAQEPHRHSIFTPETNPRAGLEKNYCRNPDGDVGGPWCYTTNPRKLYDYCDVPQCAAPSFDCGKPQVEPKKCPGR
Method: as §1

| plasmin inhibition in terms of titration curves, compared with bovine pancreatic aprotinin (Aprotinin Novo) (plasmin) | Substance | specific (inhibitory) activity against trypsin compared with native / bovine pancreatic aprotinin (trypsin [1]) | trypsin inhibition in terms of titration curves, compared with bovine pancreatic aprotinin (Aprotinin Novo) (trypsin [2]) |
| --- | --- | --- | --- |
| indistinguishable | Glu-Leu-aprotinin(1-58) | identical within the experimental error | indistinguishable |
| indistinguishable | Glu-Leu-Asp-Leu-aprotinin(1-58) |  | indistinguishable |
|  | aprotinin(1-58) | indistinguishable |  |
